According to PMC11645189 (ACS infectious diseases, 2024):

Experiments:
P. yoelii = test: in vivo blood-stage efficacy in the P. yoelii mouse model; parameters: species or system Plasmodium yoelii
[1] = test system: P. falciparum stage V gametocytes; test: gametocytocidal assay using late-stage gametocytes; assay type: cell-based; settings: Plasmodium falciparum, read-out: sexual blood-stage vs. P. falciparum stage V gametocytes IC50
P. falciparum D6 = settings: read-out: asexual blood-stage vs. P. falciparum D6 IC50; cited from earlier work

## CCN(CC)CCCC(C)Nc1ccnc2cc(Cl)ccc12 (stereo not shown) [CQ, chloroquine]
P. yoelii; 25 mg/kg/4d oral
  in vivo %parasitemia reduction vs. controls on day 5: 100%
P. yoelii; 50 mg/kg/4d oral
  in vivo %parasitemia reduction vs. controls on day 5: 100%

## CN(C)c1ccc2nc3ccc(=[N+](C)C)cc-3sc2c1 [methylene blue]
[1]
  IC50: 143 nM

## O=C1C(O)=C([C@H]2CC[C@H](c3ccc(Cl)cc3)CC2)C(=O)c2ccccc21 [ATQ, Atovaquone]
P. falciparum D6
  IC50: 0.1 nM
